Values of other authors in US20150017236A1, “PHARMACEUTICAL COMPOSITIONS OF THYROID HORMONE” (priority 2013, published 2015).

Conditions: tablet formulation of levothyroxine sodium; storage

decomposition of levothyroxine: approximately 1 percent per month
SMILES: N[C@@H](Cc1cc(I)c(Oc2cc(I)c(O)c(I)c2)c(I)c1)C(=O)O [levothyroxine sodium, sodium (S)-2-amino-3-[4-(4-hydroxy-3,5-diiodphenoxy)-3,5-diiodophenyl]propionate]
